According to patent US20210378193A1, “HAPLOID EMBRYOGENESIS” (STICHTING WAGENINGEN RESEARCH, priority 2013, published 2021):

Legend:
[1] = test system: B. napus DH12075 microspore culture; test: sporophytic cell division in B. napus DH12075 microspore culture (DAPI staining); assay type: cell-based, Brassica napus
Experimental: Brassica napus L. DH12075 was used as a donor plant for microspore embryo culture. The B. napus plant growth and microspore isolation procedures were performed as described in Custers, J. B. M. (2003) “Microspore culture in rapeseed (Brassica napus L.)” in Doubled haploid production in crop plants: a manual, M. Maluszynski, K. J. Kasha, B. P. Forster, and I. Szarejko, eds (Dordrecht: Kluwer Academic Publishers), pp. 185-193. Flower buds for microspore culture were grouped by size (measured from the tip of the flower bud to the bottom of the sepal), ranging from 3.0 to 3.5 mm for DH4079 and from 2.6 to 4.0 mm for DH12075. The microspores were isolated and cultured in NLN-13 medium (see Lichter, R. (1982) […]. For induction of embryogenesis, microspores were cultured in the dark at 33° C. for 20 hours and subsequently transferred to 25° C. Non-induced microspore cultures were cultured continuously at 25° C. or 18° C. Trichostatin A (TSA, Sigma-Aldrich) was prepared in DMSO. Freshly isolated microspores were inoculated in a medium containing TSA or the same volume of DMSO as a control and cultured for 20 hours at the temperature indicated for each experiment. After this period, the cultures were centrifuged at 200 g for 3 min, resuspended in fresh NLN-13 medium without TSA, and transferred to 25° C.
The developmental stage and identity of cells in microspore and anther culture were visualized with the nuclear stain 4′, 6-diamidino-2-phenylindole (DAPI, 1.25 μg/ml according to Custers (2003) supra using a Zeiss Axioskop epifluorescence microscope with a filter set no. 02. Approximately two hundred microspores or multicellular clusters were counted for each sample. GFP was imaged using confocal laser scanning microscopy (CLSM; Leica DM5500 Q). The GFP was excited with an argon laser line at 488 nm and detected with a 505-530 nm emission filter. Samples were counterstained with DAPI or propidium iodide (10 mg/ml; Sigma-Aldrich). Propidium iodide and red autofluorescence were excited at 532 nm and detected with a 620-660 nm emission filter. GFP and DAPI were covisualized with CLSM. For CLSM, DAPI was excited at 405 nm and detected with a 440-500 nm emission filter. The optical slices were median filtered with Leica LAS AF software. Arabidopsis anthers were cleared in HCG solution (water: Chloral hydrate: glycerol; 3:8:1) for 10 min, then observed under DIC microscopy with a Nikon OPTIPHOT microscope.
Cultured microspores and pollen of B. napus genotype DH12075 were treated with the HDAC inhibitor TSA. We examined the development of microspore cultures by staining heat-stressed (hereafter referred to as control) and heat-stressed plus TSA-treated immature male gametophytes at different developmental stages with the nuclear dye, DAPI. Initial dosage experiments were used to establish the minimal exposure time (20 h) in relation to the specific phenotypes discussed below.
The developmental fate of heat-stressed control cultures and cultures exposed to both heat-stress and TSA was followed by examining older cultures in more detail. […] Heat-stressed microspores and pollen were treated with a range of TSA concentrations, and the cultures examined after five and 15 days using DAPI staining to characterize the different multicellular structures that developed.

[2] = test system: B. rapa genotypes microspore culture; test: embryogenic cell divisions in Brassica rapa microspore culture; assay type: cell-based; conditions: 0.5 μM TSA, six B. rapa genotypes
Experimental: The following B. rapa genotypes were tested in an experiment that measured t h e embryogenic activity of 0.5 μM TSA in microspore culture against respective controls in the absence of TSA: Microspores were obtained from donor buds. Donor buds were ranked from youngest (1) tooldest (3) developmental stage, whereby (2) is an intermediate stage. […] The data also indicates how genotype and/or donor bud stage may influence the level of embryogenic cell divisions caused by enhancement with TSA treatment over controlsin […]. Such stage-dependency is a normal observation in this tissue culture system.

Q: For `CC(/C=C/C(=O)NO)=C\[C@@H](C)C(=O)c1ccc(N(C)C)cc1` [TSA, trichostatin A], which “effect of duration of TSA treatment on proportion of sporophytic divisions” value ([1]; 0.5 μM TSA, 33° C., treatment longer than 20 hours, counted after five days) is on record?
A: did not further enhance or reduce

Q: And the “proportion of the population dividing sporophytically” value ([1]; heat stress plus 0.5 μM TSA, after two days of culture)?
A: up to 80%

Q: What about the “sporophytically-divided cells also containing one or more generative-like nuclei” value ([1]; heat stress plus 0.5 μM TSA, two days of culture) of the same molecule?
A: approximately 10%

Q: And the “Type IV (loose callus-like) structures” value ([1]; heat-stress and TSA, five-day-old cultures, control 0.5%)?
A: up to 32%

Q: And the “Type II (compact callus-like) structures” value ([1]; heat-stress and TSA, five-day-old cultures, control 7%)?
A: up to 77%

Q: What about the “Type I classical embryogenic structures” value ([1]; heat-stress, 0.5 μM TSA, five days, control 0.5%) of the same molecule?
A: up to 1%

Q: What about the “Type I classical embryogenic structures, abundance” value ([1]; heat-stress, ten times lower concentration of TSA than 0.5 μM) of the same molecule?
A: much more abundant

Q: What about the “percentage of sporophytic divisions versus control at lower temperature” value ([1]; microspore cultures at 18 or 25° C.) of the same molecule?
A: increased percentage of sporophytic divisions

Q: What about the “total number of embryogenic cells per bud size compared to the control” value [2] of the same molecule?
A: greatly increases
